In the NIST ThermoML archive (doi:10.1016/j.tca.2005.10.007):
± gives the expanded uncertainty stated by the source.

Experiment: xn = mol fraction of the nth substance listed
Settings: 101 kPa, Liquid, Vibrating tube method

CC(O)CN (stereo not drawn) [1-amino-2-propanol] + O
mass density [kg/m3]
Settings	318.15 K	323.15 K	328.15 K	333.15 K	338.15 K	343.15 K	348.15 K	353.15 K
x2 = 0.0438	–	938.15 ± 0.46	934 ± 0.46	929.82 ± 0.46	925.59 ± 0.45	921.33 ± 0.45	917.02 ± 0.45	912.66 ± 0.45
x2 = 0.0801	–	939.79 ± 0.44	935.65 ± 0.44	931.47 ± 0.44	927.26 ± 0.44	923 ± 0.44	918.7 ± 0.44	914.34 ± 0.43
x2 = 0.1269	–	942.24 ± 0.42	938.11 ± 0.42	933.95 ± 0.42	929.74 ± 0.42	925.48 ± 0.42	921.19 ± 0.42	916.84 ± 0.41
x2 = 0.1584	–	943.75 ± 0.41	939.62 ± 0.41	935.46 ± 0.41	931.25 ± 0.4	927 ± 0.4	922.71 ± 0.4	918.36 ± 0.4
x2 = 0.2003	–	945.98 ± 0.39	941.87 ± 0.39	937.7 ± 0.39	933.51 ± 0.39	929.26 ± 0.39	924.97 ± 0.38	920.63 ± 0.38
x2 = 0.2999	–	951.92 ± 0.35	947.82 ± 0.34	943.67 ± 0.34	939.48 ± 0.34	935.23 ± 0.34	930.93 ± 0.34	926.59 ± 0.34
x2 = 0.3498	–	955.13 ± 0.32	951.03 ± 0.32	946.88 ± 0.32	942.69 ± 0.32	938.45 ± 0.32	934.15 ± 0.32	929.81 ± 0.32
x2 = 0.3999	–	958.3 ± 0.3	954.21 ± 0.3	950.06 ± 0.3	945.87 ± 0.3	941.62 ± 0.3	937.32 ± 0.3	932.97 ± 0.3
x2 = 0.4499	–	961.75 ± 0.28	957.65 ± 0.28	953.5 ± 0.28	949.31 ± 0.28	945.06 ± 0.28	940.76 ± 0.28	936.4 ± 0.27
x2 = 0.4968	–	965.17 ± 0.26	961.07 ± 0.26	956.92 ± 0.26	952.72 ± 0.26	948.47 ± 0.26	944.16 ± 0.26	939.8 ± 0.25
x2 = 0.5122	970.43 ± 0.25	966.38 ± 0.25	962.28 ± 0.25	958.13 ± 0.25	953.93 ± 0.25	949.68 ± 0.25	945.37 ± 0.25	941.01 ± 0.25
x2 = 0.5501	973.11 ± 0.23	969.05 ± 0.23	964.95 ± 0.23	960.8 ± 0.23	956.6 ± 0.23	952.34 ± 0.23	948.03 ± 0.23	943.66 ± 0.23
x2 = 0.6001	977.04 ± 0.21	972.99 ± 0.21	968.89 ± 0.21	964.74 ± 0.21	960.54 ± 0.21	956.29 ± 0.21	951.98 ± 0.21	947.61 ± 0.21
x2 = 0.6501	980.76 ± 0.19	976.72 ± 0.19	972.63 ± 0.19	968.49 ± 0.19	964.3 ± 0.19	960.06 ± 0.19	955.76 ± 0.19	951.4 ± 0.19
x2 = 0.7	984.34 ± 0.17	980.34 ± 0.17	976.28 ± 0.17	972.17 ± 0.17	968.01 ± 0.17	963.8 ± 0.17	959.53 ± 0.17	955.2 ± 0.17
x2 = 0.7501	987.6 ± 0.14	983.67 ± 0.14	979.68 ± 0.14	975.64 ± 0.14	971.55 ± 0.14	967.4 ± 0.14	963.19 ± 0.14	958.92 ± 0.15
x2 = 0.8	990.02 ± 0.12	986.23 ± 0.12	982.39 ± 0.12	978.48 ± 0.12	974.51 ± 0.12	970.48 ± 0.12	966.38 ± 0.12	962.22 ± 0.12
x2 = 0.84	991.29 ± 0.1	987.71 ± 0.1	984.06 ± 0.1	980.33 ± 0.1	976.53 ± 0.1	972.66 ± 0.1	968.72 ± 0.11	964.71 ± 0.1
x2 = 0.88	991.5 ± 0.08	988.22 ± 0.08	984.85 ± 0.08	981.39 ± 0.08	977.84 ± 0.08	974.2 ± 0.09	970.47 ± 0.09	966.66 ± 0.09
x2 = 0.92	990.94 ± 0.07	988.05 ± 0.07	985.04 ± 0.07	981.92 ± 0.07	978.68 ± 0.07	975.33 ± 0.07	971.88 ± 0.07	968.33 ± 0.08
x2 = 0.96	990.01 ± 0.05	987.53 ± 0.05	984.91 ± 0.05	982.14 ± 0.06	979.24 ± 0.06	976.22 ± 0.06	973.07 ± 0.06	969.81 ± 0.07
